Laboratory results published in patent US20170354148A1, “SAFENED HERBICIDAL COMPOSITIONS CONTAINING HALAUXIFEN AND METHODS OF USE THEREOF IN BRASSICA SPECIES” (Dow AgroSciences LLC, priority 2016, published 2017).

Experiments:
Assay in all cases: Example 5 greenhouse trials, postemergence visual injury
[1] = test system: Roundup Ready® canola (Brassica napus, RR-BRSNN)
[2] = test system: winter oilseed rape (Brassica napus, BRSNW)
[3] = test system: turnip or Polish canola (Brassica rapa, BRSRR)
[4] = test system: rutabaga (Brassica napus var. napobrassica, BRSNA)
[5] = test system: Nexera™ canola (Brassica napus, BRSNN-NEX)
[6] = test system: kale/Chinese kale (Brassica alboglabra, BRSAG)

CCOC(=O)C1=NN(c2ccc(Cl)cc2Cl)C(C)(C(=O)OCC)C1 (racemic) [Mefenpyr-diethyl, diethyl (RS)-1-(2,4-dichlorophenyl)-5-methyl-2-pyrazoline-3,5-dicarboxylate]
0%: Percent (%) Visual Injury RR-BRSNN Obs ([1]; safener alone 5 g ai/ha) | Percent (%) Visual Injury RR-BRSNN Obs ([1]; safener alone 10 g ai/ha) | Percent (%) Visual Injury RR-BRSNN Obs ([1]; safener alone 20 g ai/ha) | Percent (%) Visual Injury RR-BRSNN Obs ([1]; safener alone 40 g ai/ha) | Percent (%) Visual Injury BRSNW Obs ([2]; safener alone 5 g ai/ha) | Percent (%) Visual Injury BRSNW Obs ([2]; safener alone 10 g ai/ha) | Percent (%) Visual Injury BRSNW Obs ([2]; safener alone 20 g ai/ha) | Percent (%) Visual Injury BRSNW Obs ([2]; safener alone 40 g ai/ha) | Percent (%) Visual Injury BRSRR Obs ([3]; safener alone 5 g ai/ha) | Percent (%) Visual Injury BRSRR Obs ([3]; safener alone 10 g ai/ha) | Percent (%) Visual Injury BRSRR Obs ([3]; safener alone 20 g ai/ha) | Percent (%) Visual Injury BRSRR Obs ([3]; safener alone 40 g ai/ha) | Percent (%) Visual Injury BRSNA Obs ([4]; safener alone 5 g ai/ha) | Percent (%) Visual Injury BRSNA Obs ([4]; safener alone 10 g ai/ha) | Percent (%) Visual Injury BRSNA Obs ([4]; safener alone 20 g ai/ha) | Percent (%) Visual Injury BRSNA Obs ([4]; safener alone 40 g ai/ha) | Percent (%) Visual Injury BRSNN-NEX Obs ([5]; safener alone 5 g ai/ha) | Percent (%) Visual Injury BRSNN-NEX Obs ([5]; safener alone 10 g ai/ha) | Percent (%) Visual Injury BRSNN-NEX Obs ([5]; safener alone 20 g ai/ha) | Percent (%) Visual Injury BRSNN-NEX Obs ([5]; safener alone 40 g ai/ha) | Percent (%) Visual Injury BRSAG Obs ([6]; safener alone 5 g ai/ha) | Percent (%) Visual Injury BRSAG Obs ([6]; safener alone 10 g ai/ha) | Percent (%) Visual Injury BRSAG Obs ([6]; safener alone 20 g ai/ha) | Percent (%) Visual Injury BRSAG Obs ([6]; safener alone 40 g ai/ha)
